Here are results for 2 compounds from patent US20200170983A1, “METHODS FOR THE TREATMENT OF BLADDER CANCER” (Cipla Limited, priority 2015, published 2020).

Read-outs that look alike come from different tables or passages of the source.

One experiment concerns 5637. The experiment is described as follows: In vitro 2D assay (CellTiter-Blue cell viability). It is filed as cell-based, human. The text has this:
(§1) In the present study the human bladder cancer cell lines BXF 1036, BXF 1218, BXF 1352, 5637 and T24 were used. BXF 1036, BXF 1218 and BXF 1352 were established at Oncotest from the corresponding human patient derived xenograft. T24 was purchased from ATCC (Rockville, Md., USA) and 5637 was from DSMZ (Braunschweig, Germany). Authenticity of cell lines was confirmed at the DSMZ by STR (short tandem repeat) analysis, a PCR based DNA-fingerprinting methodology. Cell lines were routinely passaged once or twice weekly and maintained in culture for up to 20 passages. All cells were grown at 37° C. in a humidified atmosphere with 5% CO2 in RPMI 1640 medium (25 mM HEPES, with L-glutamine, #FG1385, Biochrom, Berlin, Germany) supplemented with 10% (v/v) fetal calf serum (Sigma, Taufkirchen, Germany) and 0.1 mg/mL gentamicin (Life Technologies, Karlsruhe, Germany).
(§2) The CellTiter-Blue® Cell Viability Assay (#G8081, Promega) was used according to manufacturer's instructions. Briefly, cells were harvested from exponential phase cultures, […] on the cell line's growth rate. After a 24 h recovery period to allow the cells to resume exponential growth, test compounds were added. Compounds were applied at 9 concentrations in half-log increments in duplicate and treatment continued for 96 h. After 96 h treatment of cells, 20 μL/well CellTiter-Blue® reagent was added.
(§3) Following an incubation period of up to four hours, fluorescence (FU) was measured by using the Enspire Multimode Plate Reader (excitation λ=531 nm, emission λ=615 nm). For calculations, the mean values of duplicate/sixfold (untreated control) data were used. Sigmoidal concentration-response curves were fitted to the data points (T/C values) obtained for each cell line using 4 parameter non-linear curve fit (Oncotest Warehouse Software).

Experiment [1] relates to BXF 1036. The experiment in a line: In vitro 2D assay (CellTiter-Blue cell viability). It is filed as cell-based, human. Particulars: BXF 1036, 96 h treatment.
Excerpt: as §1, §2, §3

Experiment [2] deals with BXF 1218. The experiment is described as follows: In vitro 2D assay (CellTiter-Blue cell viability). It is filed as cell-based, human. To be noted: BXF 1218, 96 h treatment.
Excerpt: as §1, §2, §3

Experiment [3] deals with BXF 1352. The experiment in a line: In vitro 2D assay (CellTiter-Blue cell viability). It is filed as cell-based, human. To be noted: BXF 1352, 96 h treatment.
Excerpt: as §1, §2, §3

The test system of a further experiment is T24. The experiment in a line: In vitro 2D assay (CellTiter-Blue cell viability). It is filed as cell-based, human.
Excerpt: as §1, §2, §3

The subject of experiment [4] is five selected human bladder cancer cell lines. The experiment is described as follows: In vitro 2D assay, mean over the panel. It is filed as cell-based.
Excerpt: as §1, §2, §3

For experiment [5], the system named is BXF 1036. The experiment is described as follows: In vitro 3D clonogenic assay (colony formation in semi-solid medium). It is filed as cell-based, human. Particulars: for IC50: BXF 1036, absolute IC50. The protocol: (§4) The clonogenic assay was carried out in a 96 well plate format using ultra low attachment plates. For each test, cells were prepared as described above and assay plates were prepared as follows: each test well contained a layer of semi-solid medium with tumor cells (50 μL), and a second layer of medium supernatant with or without test compound (100 μL). The cell layer consisted of 2·103 to 3·103 tumor cells per well, which were seeded in 50 μL/well cell culture medium (IMDM, supplemented with 20% (v/v) fetal calf serum, 0.01% (w/v) gentamicin, and 0.4% (w/v) agar. After 24 hours the test compounds were added after serial dilution in cell culture medium, and left on the cells for the duration of the experiment (continuous exposure, 100 μl drug overlay). Every plate included six untreated control wells and drug-treated groups in duplicate at 9 concentrations. Cultures were incubated at 37° C. and 7.5% CO2 in a humidified atmosphere for 8 to 13 days and monitored closely for colony growth using an inverted microscope. Within this period, ex vivo tumor growth led to the formation of colonies with a diameter of >50 μm. At the time of maximum colony formation, counts were performed with an automatic image analysis system (Bioreader 5000-Wa Biosys GmbH). 48 hours prior to evaluation, vital colonies were stained with a sterile aqueous solution of 2-(4-iodophenyl)-3-(4-nitrophenyl)-5-phenyltetrazolium chloride (1 mg/ml, 100 μl/well).

Experiment [6] deals with BXF 1218. The experiment is described as above. It is filed as cell-based, human. Particulars: for IC50: BXF 1218, absolute IC50. The method, then: as §4
Experiment [7] has as its system BXF 1352. The description is as above. It is filed as cell-based, human. To be noted: BXF 1352, absolute IC50. The protocol: as §4
The test system of the next experiment is BXF 5637. Described as above. Particulars: BXF 5637, absolute IC50. It is filed as cell-based, human. The protocol:
as §4

Experiment [8] relates to BXF T24. The experiment is described as above. It is filed as cell-based, human. Particulars: for IC50: BXF T24, absolute IC50. The protocol: as §4
The subject of experiment [9] is 5 human tumor cell lines of bladder cancer. The experiment is described as follows: In vitro 3D clonogenic assay, mean over the panel. To be noted: for IC50: colony formation; for IC50, Geo. Mean: geometric mean of five cell lines. It is filed as cell-based. The protocol:
as §4

In a further experiment the test system is BXF 1036L. The experiment in a line: Combination study, 3D clonogenic assay, 5x5 matrix, Bliss independence. It is filed as cell-based, human. Particulars: monotherapy controls of the 5x5 combination matrix, read-out: IC50, colony formation, single agent. The method, then: (§5) The objective of this study was to assess anti-tumor efficacy of adapalene in combination with cisplatin in a 5×5 matrix combination format against various bladder cancer cell lines. Efficacy of the combinations was assessed by measuring anchorage-independent growth and in vitro tumor colony formation using a 3D clonogenic assay in cell lines BXF 1036L, BXF 1218L, and BXF T24.
(§6) The compounds were tested in bladder cell lines, namely BXF 1036L, BXF 1218L, and BXF T24. Cells lines of BXF 1036L and BXF 1218L were established at Oncotest in Freiburg from the corresponding patient-derived xenografts. BXF T24 cells were obtained from American Type Culture Collection (Rockville, Md., USA). Authenticity of cell lines was confirmed at the DSMZ by STR analysis.
(§7) Cell lines were routinely passaged once or twice weekly and maintained in culture for up to 20 passages. Cells were grown at 37° C. in a humidified atmosphere with 5% CO2 in RPMI 1640 medium (25 mM HEPES, with L-glutamine, Biochrom) supplemented with 10% (v/v) fetal calf serum and 0.1 mg/mL gentamicin. The percentage of viable cells was determined in a Neubauer-hemocytometer using trypan blue exclusion.
(§8) The clonogenic assay was carried out in a 96 well plate format using ultra low attachment plates. For each test cells were prepared as described above, and assay plates were prepared as follows: each test well contained a layer of semi-solid medium with tumor cells (50 μl), and a second layer of medium supernatant with or without test compounds (100 μl). The cell layer consisted of 5·10^3 to 7.5·10^3 tumor cells per well, which were seeded in 50 μl/well cell culture medium (IMDM, supplemented with 20% (v/v) fetal calf serum, 0.01% (w/v) gentamicin, and 0.4% (w/v) agar). After 24 h, the soft-agar layer was covered with 90 μl of the same culture medium without agar, and compounds were added after serial dilution in DMSO and transfer in cell culture medium and left on the cells for the duration of the experiment (continuous exposure, 100 μL total drug overlay). Every plate included six untreated control wells and drug-treated groups. Cultures were incubated at 37° C. and 7.5% CO2 in a humidified atmosphere for 8 to 13 days and monitored closely for colony growth using an inverted microscope. Within this period, ex vivo tumor growth led to the formation of colonies with a diameter of >50 μm. At the time of maximum colony formation, counts were performed with an automatic image analysis system (CellInsight NXT, Thermo Scientific). 48 hours prior to evaluation, vital colonies were stained with a sterile aqueous solution of 2-(4-iodophenyl)-3-(4-nitrophenyl)-5-phenyltetrazolium chloride (1 mg/ml, 100 μl/well).

Experiment [10] deals with BXF T24. Described as above. It is filed as cell-based, human. To be noted: BXF T24, monotherapy controls of the 5x5 combination matrix, read-out: IC50, colony formation, single agent. The protocol: as §5, §6, §7, §8
In another experiment the test system is BXF 1218L. The description is as above. It is filed as cell-based, human. To be noted: monotherapy controls of the 5x5 combination matrix, read-out: IC50, colony formation, single agent. The protocol:
The objective of this study was to assess anti-tumor efficacy of adapalene in combination with cisplatin in a 5×5 matrix combination format against various bladder cancer cell lines. Efficacy of the combinations was assessed by measuring anchorage-independent growth and in vitro tumor colony formation using a 3D clonogenic assay in cell lines BXF […], BXF […], and BXF T24. […] The compounds were tested in bladder cell lines, namely BXF […], BXF […], and BXF T24. Cells lines of BXF […] and BXF […] were established at Oncotest in Freiburg from the corresponding patient-derived xenografts. BXF T24 cells were obtained from American Type Culture Collection (Rockville, Md., USA). Authenticity of cell lines was confirmed at the DSMZ by STR analysis. Cell lines were routinely passaged once or twice weekly and maintained in culture for up to 20 passages. Cells were grown at 37° C. in a humidified atmosphere with 5% CO2 in RPMI 1640 medium (25 mM HEPES, with L-glutamine, Biochrom) supplemented with 10% (v/v) fetal calf serum and 0.1 mg/mL gentamicin. The percentage of viable cells was determined in a Neubauer-hemocytometer using trypan blue exclusion. […] Cultures were incubated at 37° C. and 7.5% CO2 in a humidified atmosphere for 8 to 13 days and monitored closely for colony growth using an inverted microscope. […]

Regarding `COc1ccc(-c2ccc3cc(C(=O)O)ccc3c2)cc1C12CC3CC(CC(C3)C1)C2` [Adapalene], the IC50 with 5637 (Homo sapiens, 2D assay, 5637, 96 h treatment) was 5.42 µM; in the experiment with BXF 1036 [1] (Homo sapiens) it was 9.91 µM; in the experiment on BXF 1218 [2] (Homo sapiens), 6 µM; in the experiment with BXF 1352 [3] (Homo sapiens), 14 µM; in the experiment on T24 (Homo sapiens, T-24, T24, 96 h treatment) it was 3.33 µM; in [4] (Homo sapiens, geometric mean of five cell lines, read-out: IC50, Geo. Mean), 6.84 µM. Further, the IC50 is 9.72 µM with BXF 1036 [5] (Homo sapiens); 4.76 µM in the experiment with BXF 1218 [6] (Homo sapiens); 12.8 µM in the experiment on BXF 1352 [7] (Homo sapiens); 9.11 µM with BXF 5637 (Homo sapiens); ≥ 100 µM in the experiment on BXF T24 [8] (Homo sapiens); 14 µM in experiment [9] (Homo sapiens, read-out: mean absolute IC50 value). Further, the half-maximal inhibitory concentration (IC50) was found to be 7.37 µM in [9] (Homo sapiens, read-out: mean relative IC50 value); 10.8 µM with BXF 1036L (Homo sapiens); 3.44 µM in the experiment on BXF T24 [10] (Homo sapiens). In addition, in experiment [4] (IC50 of T24 vs BXF 1352), the “difference between the most sensitive and most resistant cell line” value worked out at 4 fold. In addition, the “activity relative to mean IC50 (above average = individual IC50 value < 1/2 mean IC50)” value with BXF 1218 [6] (BXF 1218) and in the experiment on BXF T24 [8] (BXF T-24) was “above average activity” in each case. For the same compound, the “IC50, Geo. Mean” value in experiment [9] was 14.01 µM.

With `N.N.[Cl][Pt][Cl]` [Cisplatin, cisplatin], the IC50 in the experiment with 5637 (2D assay, BXF 5637, 96 h treatment) is 9.71 µM; in the experiment with BXF 1036 [1] it was 9.53 µM; with BXF 1218 [2] it was 7.08 µM; in the experiment with BXF 1352 [3] it was 17.1 µM; in the experiment on T24 (BXF T24, 96 h treatment), 4.15 µM; in experiment [4] (all cell lines tested, read-out: geometric mean absolute IC50 value), 8.57 µM. Besides, the IC50 came out at 3.97 µM with BXF 1036 [5]; 5.36 µM in the experiment on BXF 1218 [6]; 8.65 µM in the experiment on BXF 1352 [7]; 10.1 µM with BXF 5637; 52 µM in the experiment on BXF T24 [8]; 9.93 µM in experiment [9] (read-out: mean absolute IC50 value). In addition, the IC50 in [9] (read-out: mean relative IC50 value) worked out at 9.71 µM; in the experiment on BXF 1218L, 6.8 µM; with BXF 1036L, 6.09 µM; in the experiment on BXF T24 [10], 77.4 µM. Besides, the “activity relative to mean IC50 (above average = individual IC50 value < 1/2 mean IC50)” value in the experiment on BXF 1036 [5] (BXF 1036, based on relative IC50 values) is given as “above average activity”. Moreover, in experiment [9], the “IC50, Geo. Mean” value turned out to be 9.93 µM. Also, in experiment [9] (responding tumor models), the “Bottom plateaus of the concentration-effect curves” value is < 10%.
